Where two headings read alike, the source gives them in different places.
Assays:
Assay type in all cases: biochemical
Human Calpain 1/NS1 = biological target: T1, Human Calpain 1/NS1 (Homo sapiens, UniProt P07384); test: Calpain inhibition continuous fluorescence (FRET) assay, Human Calpain 1/NS1; conditions: read-out: Human Calpain 1/NS1 IC50
T1 sequence (P07384 1-714): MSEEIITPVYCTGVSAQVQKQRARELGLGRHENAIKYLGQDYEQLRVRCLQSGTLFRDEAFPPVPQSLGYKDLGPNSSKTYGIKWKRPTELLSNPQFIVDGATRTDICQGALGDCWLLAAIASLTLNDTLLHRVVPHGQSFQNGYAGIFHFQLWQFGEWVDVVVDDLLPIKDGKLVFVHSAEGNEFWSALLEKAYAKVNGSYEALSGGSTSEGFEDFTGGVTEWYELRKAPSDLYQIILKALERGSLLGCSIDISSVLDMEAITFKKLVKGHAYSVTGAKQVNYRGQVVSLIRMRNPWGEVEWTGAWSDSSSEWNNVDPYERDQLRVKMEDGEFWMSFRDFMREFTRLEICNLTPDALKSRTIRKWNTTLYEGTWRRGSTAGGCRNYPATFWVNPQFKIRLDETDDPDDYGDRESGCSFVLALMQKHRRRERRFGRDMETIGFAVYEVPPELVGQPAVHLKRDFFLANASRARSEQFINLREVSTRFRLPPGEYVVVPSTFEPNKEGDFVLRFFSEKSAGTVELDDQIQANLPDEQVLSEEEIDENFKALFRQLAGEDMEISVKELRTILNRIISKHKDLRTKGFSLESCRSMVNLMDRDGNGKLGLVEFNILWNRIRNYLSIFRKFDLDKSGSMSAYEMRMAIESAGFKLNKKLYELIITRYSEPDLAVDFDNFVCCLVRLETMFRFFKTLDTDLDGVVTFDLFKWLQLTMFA
T1 sequence (P04632 1-268 partner): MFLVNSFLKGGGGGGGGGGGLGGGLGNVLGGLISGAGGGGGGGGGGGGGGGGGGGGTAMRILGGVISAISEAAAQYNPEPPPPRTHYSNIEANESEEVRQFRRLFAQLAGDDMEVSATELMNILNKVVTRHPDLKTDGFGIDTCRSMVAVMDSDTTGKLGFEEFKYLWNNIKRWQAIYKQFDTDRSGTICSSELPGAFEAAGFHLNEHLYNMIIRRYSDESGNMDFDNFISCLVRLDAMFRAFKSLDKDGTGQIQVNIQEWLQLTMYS
Summary of the method: (§1)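 Inhibitors were preincubated with calpain in 50 mM Tris pH 7.5, 100 mM NaCl, 1 mM DTT at 25C. Reactions were started with 5-FAM/QXL 520 FRET peptide substrate plus CaCl2 and read at 490/520 nm for 10 min. IC50s came from 4-parameter fits of slope rates (1-5 min).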

Human Calpain 2/NS1 = biological target: T2, Human Calpain 2/NS1 (Homo sapiens, UniProt P17655); test: Calpain inhibition continuous fluorescence (FRET) assay, Human Calpain 2/NS1; conditions: read-out: Human Calpain 2/NS1 IC50
T2 sequence (P17655 1-700): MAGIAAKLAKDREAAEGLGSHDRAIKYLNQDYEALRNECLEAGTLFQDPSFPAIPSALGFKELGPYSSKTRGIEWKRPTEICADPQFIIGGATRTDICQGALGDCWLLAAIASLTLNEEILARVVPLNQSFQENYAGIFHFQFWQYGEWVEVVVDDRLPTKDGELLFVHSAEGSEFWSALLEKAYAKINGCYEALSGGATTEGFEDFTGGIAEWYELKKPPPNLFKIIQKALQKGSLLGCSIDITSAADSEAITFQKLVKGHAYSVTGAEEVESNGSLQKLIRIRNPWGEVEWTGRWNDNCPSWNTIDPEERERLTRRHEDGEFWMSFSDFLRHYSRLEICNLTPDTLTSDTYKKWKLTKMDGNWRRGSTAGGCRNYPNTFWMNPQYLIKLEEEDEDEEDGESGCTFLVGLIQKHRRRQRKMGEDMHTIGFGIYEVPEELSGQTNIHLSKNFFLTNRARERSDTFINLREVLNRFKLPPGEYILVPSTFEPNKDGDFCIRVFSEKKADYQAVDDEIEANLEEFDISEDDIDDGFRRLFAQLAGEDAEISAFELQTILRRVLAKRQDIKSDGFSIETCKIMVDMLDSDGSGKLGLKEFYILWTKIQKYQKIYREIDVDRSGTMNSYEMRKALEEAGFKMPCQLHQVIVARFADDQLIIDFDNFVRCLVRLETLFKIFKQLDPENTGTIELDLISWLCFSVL
T2 sequence (P04632 1-268 partner): T1 sequence (P04632 1-268 partner)
Summary of the method: as §1

Human Calpain 9/NS1 = biological target: T3, Human Calpain 9/NS1 (Homo sapiens, UniProt O14815); test: Calpain inhibition continuous fluorescence (FRET) assay, Human Calpain 9/NS1; conditions: read-out: Human Calpain 9/NS1 IC50
T3 sequence (O14815 1-690): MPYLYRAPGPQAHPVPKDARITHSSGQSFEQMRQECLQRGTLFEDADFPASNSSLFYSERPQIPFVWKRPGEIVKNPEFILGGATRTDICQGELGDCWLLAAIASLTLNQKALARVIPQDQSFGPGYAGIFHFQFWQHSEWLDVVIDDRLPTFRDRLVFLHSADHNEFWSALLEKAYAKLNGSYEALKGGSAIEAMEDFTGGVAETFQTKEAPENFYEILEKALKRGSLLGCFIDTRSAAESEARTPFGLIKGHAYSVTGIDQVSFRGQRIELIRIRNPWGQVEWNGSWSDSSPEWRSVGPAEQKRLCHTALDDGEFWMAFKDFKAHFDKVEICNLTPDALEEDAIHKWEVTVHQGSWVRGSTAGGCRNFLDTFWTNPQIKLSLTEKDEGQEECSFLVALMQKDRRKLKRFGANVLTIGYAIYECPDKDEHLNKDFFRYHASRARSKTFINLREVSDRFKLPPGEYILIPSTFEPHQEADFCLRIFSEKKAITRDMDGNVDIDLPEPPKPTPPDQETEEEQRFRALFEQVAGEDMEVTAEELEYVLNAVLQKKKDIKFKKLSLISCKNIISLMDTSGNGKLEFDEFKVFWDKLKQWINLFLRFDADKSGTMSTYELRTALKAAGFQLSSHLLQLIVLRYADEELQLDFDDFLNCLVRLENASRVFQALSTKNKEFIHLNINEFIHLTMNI
T3 sequence (P04632 1-268 partner): T1 sequence (P04632 1-268 partner)
Summary of the method: as §1

| Compound | IC50 (Human Calpain 1/NS1; Column A) | IC50 (Human Calpain 2/NS1; Column B) | IC50 (Human Calpain 9/NS1; Column C) | IC50 (Human Calpain 1/NS1) | IC50 (Human Calpain 2/NS1) | IC50 (Human Calpain 9/NS1) |
| --- | --- | --- | --- | --- | --- | --- |
| Cc1noc(-c2ccccc2)c1C(=O)N[C@@H](Cc1ccccc1)C(=O)C(=O)NCc1ccc2c(c1)OCO2 [Compound 225, (S)—N-(4-((benzo[d][1,3]dioxol-5-ylmethyl)amino)-3,4-dioxo-1-phenylbutan-2-yl)-3-methyl-5-phenylisoxazole-4-carboxamide] | < 3 µM | > 10 µM | > 10 µM | – | – | – |
| COc1ccc(C[C@H](NC(=O)c2c(C)noc2-c2ccccc2)C(=O)C(N)=O)cc1 [Compound 46, (S)—N-(4-amino-1-(4-methoxyphenyl)-3,4-dioxobutan-2-yl)-3-methyl-5-phenylisoxazole-4-carboxamide] | < 3 µM | < 3 µM | < 3 µM | – | – | – |
| Cc1cc(C(=O)NC(Cc2ccccc2)C(=O)C(N)=O)n(-c2ccncn2)n1 (stereo not drawn) [Compound 409, N-(4-amino-3,4-dioxo-1-phenylbutan-2-yl)-3-methyl-1-(pyrimidin-4-yl)-1H-pyrazole-5-carboxamide] | – | – | – | < 3 µM | < 3 µM | < 3 µM |
| (S)—N-(4-amino-3,4-dioxo-1-phenylbutan-2-yl)-4-chloro-1-ethyl-3-methyl-1H-pyrazole-5-carboxamide [Compound 312] | – | – | – | < 3 µM | < 3 µM | 3 to 10 µM |
| Cc1cnc(C(=O)NC(Cc2ccccc2)C(=O)C(N)=O)n1-c1ccccc1 (stereo not drawn) [Compound 490, N-(4-amino-3,4-dioxo-1-phenylbutan-2-yl)-5-methyl-1-phenyl-1H-imidazole-2-carboxamide] | – | – | – | > 10 µM | 3 to 10 µM | < 3 µM |
| O=C(NC1CC1)C(=O)[C@H](Cc1ccccc1)NC(=O)c1cncn1-c1ncc(-c2ccccc2)s1 [Compound 53, (S)—N-(4-(cyclopropylamino)-3,4-dioxo-1-phenylbutan-2-yl)-1-(5-phenylthiazol-2-yl)-1H-imidazole-5-carboxamide] | < 3 µM | < 3 µM | 3 to 10 µM | – | – | – |
| Cc1cc(C(=O)N[C@@H](Cc2ccccc2)C(=O)C(N)=O)n(-c2ncccc2C)n1 [Compound 66, (S)—N-(4-amino-3,4-dioxo-1-phenylbutan-2-yl)-3-methyl-1-(3-methylpyridin-2-yl)-1H-pyrazole-5-carboxamide] | 3 to 10 µM | < 3 µM | < 3 µM | – | – | – |
| Cn1cc(C(=O)NC(Cc2ccccc2)C(=O)C(N)=O)c(N2CCS(=O)(=O)CC2)n1 (stereo not drawn) [Compound 613, N-(4-amino-3,4-dioxo-1-phenylbutan-2-yl)-3-(1,1-dioxidothiomorpholino)-1-methyl-1H-pyrazole-4-carboxamide] | – | – | – | 3 to 10 µM | 3 to 10 µM | < 3 µM |
| Cn1cc(C(=O)NC(Cc2ccccc2)C(=O)C(N)=O)c(-c2ccc3c(c2)OCCCO3)n1 (stereo not drawn) [Compound 625, N-(4-amino-3,4-dioxo-1-phenylbutan-2-yl)-3-(3,4-dihydro-2H-benzo[b][1,4]dioxepin-7-yl)-1-methyl-1H-pyrazole-4-carboxamide] | – | – | – | < 3 µM | < 3 µM | < 3 µM |
| (S)—N-(4-amino-3,4-dioxo-1-phenylbutan-2-yl)-1-(tert-butyl)-3-methyl-1H-pyrazole-5-carboxamide [Compound 310] | – | – | – | < 3 µM | < 3 µM | 3 to 10 µM |
| Cn1cc(C(=O)NC(Cc2ccccc2)C(=O)C(N)=O)c(C(=O)c2ccccc2)n1 (stereo not drawn) [Compound 395, N-(4-amino-3,4-dioxo-1-phenylbutan-2-yl)-3-benzoyl-1-methyl-1H-pyrazole-4-carboxamide] | – | – | – | > 10 µM | 3 to 10 µM | 3 to 10 µM |
| Cc1cc(C(=O)N[C@@H](Cc2ccccc2)C(=O)C(N)=O)n(-c2cncc3ccccc23)n1 [Compound 133, (S)—N-(4-amino-3,4-dioxo-1-phenylbutan-2-yl)-1-(isoquinolin-4-yl)-3-methyl-1H-pyrazole-5-carboxamide] | < 3 µM | < 3 µM | < 3 µM | – | – | – |
| NC(=O)C(=O)[C@H](Cc1ccccc1)NC(=O)c1cncn1-c1cc(-c2ncco2)ccn1 [Compound 88, (S)—N-(4-amino-3,4-dioxo-1-phenylbutan-2-yl)-1-(4-(oxazol-2-yl)pyridin-2-yl)-1H-imidazole-5-carboxamide] | < 3 µM | < 3 µM | < 3 µM | – | – | – |
| O=C(NC1CC1)C(=O)[C@H](Cc1ccccc1)NC(=O)c1nn[nH]c1-c1ccccc1 [Compound 204, (S)—N-(4-(cyclopropylamino)-3,4-dioxo-1-phenylbutan-2-yl)-5-phenyl-1H-1,2,3-triazole-4-carboxamide] | > 10 µM | > 10 µM | > 10 µM | – | – | – |
| Cc1cc(-n2nc(C)cc2C(=O)N[C@@H](Cc2ccccc2)C(=O)C(N)=O)nc(C)n1 [Compound 235, (S)—N-(4-amino-3,4-dioxo-1-phenylbutan-2-yl)-1-(2,6-dimethylpyrimidin-4-yl)-3-methyl-1H-pyrazole-5-carboxamide] | < 3 µM | < 3 µM | < 3 µM | – | – | – |
| Cc1cc(C(=O)N[C@@H](Cc2ccccc2)C(=O)C(N)=O)nn1-c1ncc(-c2ccccc2)o1 [Compound 114, (S)—N-(4-amino-3,4-dioxo-1-phenylbutan-2-yl)-5-methyl-1-(5-phenyloxazol-2-yl)-1H-pyrazole-3-carboxamide] | 3 to 10 µM | < 3 µM | 3 to 10 µM | – | – | – |
| Cc1cc(C(=O)N[C@@H](Cc2ccccc2)C(=O)C(N)=O)nn1-c1nc2ccccc2o1 [Compound 256, (S)—N-(4-amino-3,4-dioxo-1-phenylbutan-2-yl)-1-(benzo[d]oxazol-2-yl)-5-methyl-1H-pyrazole-3-carboxamide] | > 10 µM | > 10 µM | < 3 µM | – | – | – |
| Cc1noc(-n2cc3ccccc3n2)c1C(=O)N[C@@H](Cc1ccccc1)C(=O)C(N)=O [Compound 139, (S)—N-(4-amino-3,4-dioxo-1-phenylbutan-2-yl)-5-(2H-indazol-2-yl)-3-methylisoxazole-4-carboxamide] | < 3 µM | < 3 µM | < 3 µM | – | – | – |

— patent US11339130B1 (Blade Therapeutics, Inc., priority 2016, dated 2022)
